Assay results taken from patent US11053204B2, “Pyrimidinyloxy benzene derivatives as herbicides” (FMC Corporation, priority 2015, dated 2021).

Legend:
Type in all cases: in vivo
[1] = system: pigweed (Amaranthus retroflexus); experiment: Test A preemergence, visual injury rating
How it was run: (§1)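 Scoring: eye-based comparison with untreated controls, 0 for no effect through 100 for complete control, at about day 10. Treatments: directed soil spray preemergence; foliar spray postemergence on 2–10 cm plants at the one- to two-leaf stage. Medium: loam soil with sand.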

[2] = system: kochia (Kochia scoparia); experiment: Test A preemergence, visual injury rating
How it was run: as §1

[3] = system: giant foxtail (Setaria faberii); experiment: Test A preemergence, visual injury rating
How it was run: as §1

[4] = system: barnyardgrass (Echinochloa crus-galli); experiment: Test A preemergence, visual injury rating
How it was run: as §1

[5] = system: Italian ryegrass (Lolium multiflorum); experiment: Test A preemergence, visual injury rating
How it was run: as §1

[6] = system: ragweed (common ragweed, Ambrosia elatior); experiment: Test A preemergence, visual injury rating
How it was run: as §1

[7] = system: barnyardgrass (Echinochloa crus-galli); experiment: Test B flooded paddy test, plant response rating; settings: 250 g ai/ha; Flood; scale of 0 to 100 where 0 is no effect and 100 is complete control; 13 to 15 days
How it was run: (§2)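 Flooded 3 cm over soil; compound into paddy water; depth kept constant. Greenhouse 13–15 d.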

[8] = system: sedge, umbrella (small-flower umbrella sedge, Cyperus difformis); experiment: Test B flooded paddy test, plant response rating; settings: 250 g ai/ha; Flood; scale of 0 to 100 where 0 is no effect and 100 is complete control; 13 to 15 days
How it was run: as §2

[9] = system: rice (Oryza sativa); experiment: Test B flooded paddy test, plant response rating; settings: 250 g ai/ha; Flood; scale of 0 to 100 where 0 is no effect and 100 is complete control; 13 to 15 days
How it was run: as §2

[10] = system: ducksalad (Heteranthera limosa); experiment: Test B flooded paddy test, plant response rating; settings: 250 g ai/ha; Flood; scale of 0 to 100 where 0 is no effect and 100 is complete control; 13 to 15 days
How it was run: as §2

[11] = system: corn (Zea mays); experiment: Test A postemergence, visual injury rating
How it was run: as §1

[12] = system: pigweed (Amaranthus retroflexus); experiment: Test A postemergence, visual injury rating
How it was run: as §1

[13] = system: kochia (Kochia scoparia); experiment: Test A postemergence, visual injury rating
How it was run: as §1

[14] = system: galium (catchweed bedstraw, Galium aparine); experiment: Test A postemergence, visual injury rating
How it was run: as §1

[15] = system: giant foxtail (Setaria faberii); experiment: Test A postemergence, visual injury rating
How it was run: as §1

[16] = system: barnyardgrass (Echinochloa crus-galli); experiment: Test A postemergence, visual injury rating; settings: 0 is no effect, 100 is complete control; for Barnyardgrass plant response rating: 0 to 100 scale, approximately 10 days
How it was run: as §1

[17] = system: Italian ryegrass (Lolium multiflorum); experiment: Test A postemergence, visual injury rating
How it was run: as §1

[18] = system: ragweed (common ragweed, Ambrosia elatior); experiment: Test A postemergence, visual injury rating
How it was run: as §1

[19] = system: blackgrass (Alopecurus myosuroides); experiment: Test A postemergence, visual injury rating
How it was run: as §1

[20] = system: wheat (Triticum aestivum); experiment: Test A postemergence, visual injury rating
How it was run: as §1

[21] = 31 g ai/ha, 0 to 100 scale, 0 no effect, 100 complete control
[22] = 125 g ai/ha, 0 to 100 scale (0 no effect, 100 complete control)
[23] = 31 g ai/ha, 0 to 100 scale, 0 is no effect, 100 is complete control, approximately 10 days
[24] = 125 g ai/ha, 0 is no effect, 100 is complete control
[25] = 31 g ai/ha, 0 to 100 scale (0 no effect, 100 complete control)
[26] = 125 g ai/ha, 0 to 100 scale, 0 is no effect, 100 is complete control, approximately 10 days

With O=C(OCC(Cl)(Cl)Cl)c1c(Br)cccc1Oc1ncc(Cl)cn1 [Compound 45] the “Plant response rating, Pigweed” value [1, 21] was 0, the “Pigweed plant response rating” value [1, 22] was 70 and the “Plant response rating, Kochia” value [2, 21] was 0. The “Kochia plant response rating” value [2, 22] was 0, the “Plant response rating, Foxtail, Giant” value [3, 21] was 0 and the “Foxtail, Giant plant response rating” value [3, 22] was 10. For the same compound, the “Plant response rating, Barnyardgrass” value [4, 21] was 0, the “Barnyardgrass plant response rating” value [4, 22] was 0 and the “Plant response rating, Ryegrass, Italian” value [5, 21] was 0. The “Ryegrass, Italian plant response rating” value [5, 22] was 0, the “Plant response rating, Ragweed” value [6, 21] was 0 and the “Ragweed plant response rating” value [6, 22] was 0. The “Plant response rating, Barnyardgrass” value [7] was 0, the “Plant response rating, Sedge, Umbrella” value [8] was 0 and the “Plant response rating, Rice” value [9] was 0. The “Plant response rating, Ducksalad” value [10] was 0, the “Corn plant response rating” value [11, 23] was 0 and the “Corn plant response rating (0 to 100 scale)” value [11, 24] was 20. For the same compound, the “Pigweed plant response rating” value [12, 23] was 80, the “Pigweed plant response rating (0 to 100 scale)” value [12, 24] was 100 and the “Kochia plant response rating” value [13, 23] was 20. The “Kochia plant response rating (0 to 100 scale)” value [13, 24] was 50, the “Galium plant response rating” value [14, 23] was 50 and the “Galium plant response rating (0 to 100 scale)” value [14, 24] was 100. The “Foxtail, Giant plant response rating” value [15, 23] was 20, the “Foxtail, Giant plant response rating (0 to 100 scale)” value [15, 24] was 20 and the “Barnyardgrass plant response rating” value ([16]; 31 g ai/ha) was 20. The “Barnyardgrass plant response rating (0 to 100 scale)” value ([16]; 125 g ai/ha) was 20, the “Ryegrass, Italian plant response rating” value [17, 23] was 0 and the “Ryegrass, Italian plant response rating (0 to 100 scale)” value [17, 24] was 0. For the same compound, the “Ragweed plant response rating” value [18, 23] was 10, the “Ragweed plant response rating (0 to 100 scale)” value [18, 24] was 10 and the “Blackgrass plant response rating” value [19, 23] was 0. For the same compound, the “Blackgrass plant response rating (0 to 100 scale)” value [19, 24] was 0, the “Wheat plant response rating” value [20, 23] was 0 and the “Wheat plant response rating (0 to 100 scale)” value [20, 24] was 0.

For N#CCc1ccccc1Oc1ncc(Cl)cn1 [Compound 140], the “Plant response rating, Pigweed” value [1, 21] was 0, the “Plant response rating, Pigweed” value [1, 22] was 10 and the “Plant response rating, Kochia” value [2, 21] was 0. The “Plant response rating, Kochia” value [2, 22] was 40, the “Plant response rating, Foxtail, Giant” value [3, 21] was 0 and the “Plant response rating, Foxtail, Giant” value [3, 22] was 0. For the same compound, the “Plant response rating, Barnyardgrass” value [4, 21] was 0, the “Plant response rating, Barnyardgrass” value [4, 22] was 0 and the “Plant response rating, Ryegrass, Italian” value [5, 21] was 10. The “Plant response rating, Ryegrass, Italian” value [5, 22] was 10, the “Plant response rating, Ragweed” value [6, 21] was 0 and the “Plant response rating, Ragweed” value [6, 22] was 0. For the same compound, the “Plant response rating, Barnyardgrass” value [7] was 0, the “Plant response rating, Sedge, Umbrella” value [8] was 0 and the “Plant response rating, Rice” value [9] was 0. The “Plant response rating, Ducksalad” value [10] was 0, the “Corn plant response rating” value [11, 25] was 0 and the “Corn plant response rating” value [11, 26] was 0. The “Pigweed plant response rating” value [12, 25] was 0, the “Pigweed plant response rating” value [12, 26] was 20 and the “Kochia plant response rating” value [13, 25] was 0. For the same compound, the “Kochia plant response rating” value [13, 26] was 30, the “Galium plant response rating” value [14, 25] was 0 and the “Galium plant response rating” value [14, 26] was 0. For the same compound, the “Foxtail, Giant plant response rating” value [15, 25] was 0, the “Foxtail, Giant plant response rating” value [15, 26] was 0 and the “Barnyardgrass plant response rating” value ([16]; 31 g ai/ha) was 0. For the same compound, the “Barnyardgrass plant response rating” value ([16]; 125 g ai/ha) was 0, the “Ryegrass, Italian plant response rating” value [17, 25] was 0 and the “Ryegrass, Italian plant response rating” value [17, 26] was 0. For the same compound, the “Ragweed plant response rating” value [18, 25] was 0, the “Ragweed plant response rating” value [18, 26] was 0 and the “Blackgrass plant response rating” value [19, 25] was 0. The “Blackgrass plant response rating” value [19, 26] was 0, the “Wheat plant response rating” value [20, 25] was 0 and the “Wheat plant response rating” value [20, 26] was 0.

In the case of N#Cc1cccc(Oc2ncc(Cl)cn2)c1C(=O)CCCCC(F)(F)F [Compound 109], the “Plant response rating, Pigweed” value [1, 21] is reported as 0, the “Plant response rating, Pigweed” value [1, 22] is reported as 60 and the “Plant response rating, Kochia” value [2, 21] is reported as 0. For the same compound, the “Plant response rating, Kochia” value [2, 22] was 0, the “Plant response rating, Foxtail, Giant” value [3, 21] was 0 and the “Plant response rating, Foxtail, Giant” value [3, 22] was 40. For the same compound, the “Plant response rating, Barnyardgrass” value [4, 21] was 0, the “Barnyardgrass plant response rating” value [4, 22] was 20 and the “Plant response rating, Ryegrass, Italian” value [5, 21] was 0. The “Plant response rating, Ryegrass, Italian” value [5, 22] was 0, the “Plant response rating, Ragweed” value [6, 21] was 0 and the “Plant response rating, Ragweed” value [6, 22] was 0. The “Plant response rating, Barnyardgrass” value [7] was 0, the “Plant response rating, Sedge, Umbrella” value [8] was 0 and the “Plant response rating, Rice” value [9] was 0. The “Plant response rating, Ducksalad” value [10] was 0, the “Corn plant response rating” value [11, 23] was 10 and the “Corn plant response rating” value [11, 26] was 20. The “Pigweed plant response rating” value [12, 23] was 20, the “Pigweed plant response rating” value [12, 26] was 60 and the “Kochia plant response rating” value [13, 23] was 0. The “Kochia plant response rating” value [13, 26] was 20, the “Galium plant response rating” value [14, 23] was 0 and the “Galium plant response rating” value [14, 26] was 30. For the same compound, the “Foxtail, Giant plant response rating” value [15, 23] was 0, the “Foxtail, Giant plant response rating” value [15, 26] was 0 and the “Barnyardgrass plant response rating” value ([16]; 31 g ai/ha) was 0. The “Barnyardgrass plant response rating” value ([16]; 125 g ai/ha) was 0, the “Ryegrass, Italian plant response rating” value [17, 23] was 0 and the “Ryegrass, Italian plant response rating” value [17, 26] was 0. For the same compound, the “Ragweed plant response rating” value [18, 23] was 0, the “Ragweed plant response rating” value [18, 26] was 20 and the “Blackgrass plant response rating” value [19, 23] was 0. The “Blackgrass plant response rating” value [19, 26] was 0, the “Wheat plant response rating” value [20, 23] was 0 and the “Wheat plant response rating” value [20, 26] was 0.
